Experimental data as given in ChEMBL document CHEMBL1130613, “Design and synthesis of dipeptidyl alpha',beta'-epoxy ketones, potent irreversible inhibitors of the cysteine protease cruzain” (Bioorg Med Chem Lett, 1998).

target: Cruzipain (Trypanosoma cruzi) (UniProt P25779); assay: Second order rate constant for inhibition of cruzain
Sequence (P25779 123-467 limits assumed): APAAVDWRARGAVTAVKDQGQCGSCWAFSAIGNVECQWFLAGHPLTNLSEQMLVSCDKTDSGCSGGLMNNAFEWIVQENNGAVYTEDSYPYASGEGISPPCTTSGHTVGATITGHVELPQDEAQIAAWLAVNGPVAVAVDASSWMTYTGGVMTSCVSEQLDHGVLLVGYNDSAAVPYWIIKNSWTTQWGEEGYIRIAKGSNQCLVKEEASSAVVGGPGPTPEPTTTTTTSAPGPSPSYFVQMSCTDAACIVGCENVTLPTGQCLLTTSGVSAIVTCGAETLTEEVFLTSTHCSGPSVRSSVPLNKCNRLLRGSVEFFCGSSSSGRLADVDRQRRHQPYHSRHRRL

Row | Compound | K inact/Ki [M⁻¹ s⁻¹]
1 | CC(C)CCNC(=O)[C@H](CC(C)C)NC(=O)[C@H]1OC1C(=O)O (single isomer, unassigned) | 70600
2 | C[C@H](NC(=O)[C@H](Cc1ccccc1)NC(=O)OCc1ccccc1)C(=O)[C@@H]1CO1 | 128000
3 | O=C(N[C@@H](Cc1ccccc1)C(=O)N[C@@H](CCc1ccccc1)C(=O)[C@@H]1CO1)OCc1ccccc1 | 330000
